Counter-ions that a name gives are not always drawn.
What was measured:
Assay type in all cases: in vivo, rabbit
[1] = test system: REC1_1 (MspI AAGC 288) mRNA, TYRO protein tyrosine kinase binding p; test: TOGA analysis, REC1_1
Procedure: (§1) To perform the studies, New Zealand male rabbits weighing 2.0-2.5 kg (Charles River, Calco, Italy) were used. The rabbits were divided into three groups and maintained in identical experimental conditions: (1) control group (n=15); rabbits fed a cholesterol-rich diet; (2) lercanidipine-treated group (n=15); rabbits fed a cholesterol-rich diet and also treated with lercanidipine (3 mg/kg/week); and (3) (R)-lercanidipine-treated group (n=5); rabbits fed a cholesterol-rich diet and also treated with the (R)-enantiomer of lercanidipine (3 mg/kg/week). After a 2 week period of subcutaneous, once a week, pretreatment with 3 mg/kg/week of lercanidipine or (R)-lercanidipine, the rabbits received a daily cholesterol supplement for up to 8 weeks or 2 weeks, respectively. In the following examples, use of the term “lercanidipine” refers to the racemic mixture of lercanidipine hydrochloride, whereas “(R)-lercanidipine” refers to the (R)-enantiomer of lercanidipine hydrochloride.
(§2) The mRNA from the above-described groups was isolated from aorta at different time points, resulting in the following mRNA samples: (1) Day 0 Control=no administered cholesterol, no lercanidipine; (2) Day 0+lercanidipine=no administered cholesterol, treatment with lercanipidine (2 weeks; 3 mg/kg/week); (3) Day 14 Control=cholesterol diet for two weeks, no lercanidipine; (4) Day 14+lercanidipine=cholesterol diet for two weeks, treatment with lercanidipine (four weeks; 3 mg/kg/week); (5) Week 8 Control=cholesterol diet for 8 weeks, no lercanidipine; and (6) Week 8+lercanidipine=cholesterol diet for 8 weeks, treatment with lercanidipine (10 weeks; 3 mg/kg/week). In addition, Day 14+(R)-lercanidipine mRNA samples were prepared from rabbits given a cholesterol diet for two weeks and treated with 3 mg/kg/week (R)-lercanidipine for four weeks.
(§3) Aorta mRNAs were prepared in the following manner. First, the aortas from each experimental group were retrieved and shredded using a polytron homogenizer. The samples were further homogenized using a teflon pestle, after which the cellular debris, nuclei, and blood cells were pelleted by centrifugation. The supernatants were extracted twice with phenol-chloroform-isoamyl alcohol and once with chloroform-isoamyl alcohol. RNA was then precipitated from the aqueous phase with ethanol. The poly A+ mRNA was prepared using standard methods of polyA selection known in the art (Schriber et al., J. Mol. Biol., 142:93-116 (1980)).
(§4) The isolated mRNA was analyzed using a method of simultaneous sequence-specific identification of mRNAs known as TOGA, described in U.S. Pat. No. 5,459,037 and U.S. Pat. No. 5,807,680, hereby incorporated herein by reference. In a preferred embodiment, the TOGA method further comprised an additional PCR step performed using a mixture of four 5′ PCR primers and cDNA templates prepared from a population of antisense cRNAs. A final PCR step that used a mixture of 256 5′ PCR primers produced PCR products that were cDNA fragments that corresponded to the 3′-region of the starting mRNA population. The produced PCR products were then identified by: (a) the initial 5′ sequence comprising the sequence remainder of the recognition site of the restriction endonuclease used to cut and isolate the 3′ region plus the sequence of the preferably four parsing bases immediately 3′ to the remainder of the recognition site, preferably the sequence of the entire fragment; and (b) the length of the fragment. These two parameters, sequence and fragment length, were used to compare the obtained PCR products to a database of known polynucleotide sequences. Since the length of the obtained PCR products includes known vector sequences at the 5′ and 3′ ends of the insert, the sequence of the insert provided in the sequence listing is shorter than the fragment length that forms part of the digital address.
(§5) The method yields Digital Sequence Tags (DSTs), that is, polynucleotides that are expressed sequence tags of the 3′ end of mRNAs. […]

[2] = test system: REC1_8 (MspI CCCG 243) mRNA; test: TOGA analysis, REC1_8
Procedure: as §1, §2, §3
as §4, with “These two parameters, sequence and fragment length, were used to compare the obtained PCR products to a database of known polynucleotide sequences. Since the length of the obtained PCR products includes known vector sequences at the 5′ and 3′ ends of the insert, the sequence of the insert provided in the sequence listing is shorter than the fragment length that forms part of the digital address.” left out

[3] = test system: REC1_13 (MspI GCCC 216) mRNA; test: TOGA analysis, REC1_13
Procedure: as §1, §2, §3
as §4, with “These two parameters, sequence and fragment length, were used to compare the obtained PCR products to a database of known polynucleotide sequences. Since the length of the obtained PCR products includes known vector sequences at the 5′ and 3′ ends of the insert, the sequence of the insert provided in the sequence listing is shorter than the fragment length that forms part of the digital address.” left out

[4] = test system: REC1_7 (MspI CACA 282) mRNA; test: TOGA analysis, REC1_7
Procedure: as §1, §2, §3, §4, §5

REC1_19 (TGTT 393) mRNA = test: TOGA analysis, REC1_19
Procedure: as §1, §2, §3
as §4, with “These two parameters, sequence and fragment length, were used to compare the obtained PCR products to a database of known polynucleotide sequences. Since the length of the obtained PCR products includes known vector sequences at the 5′ and 3′ ends of the insert, the sequence of the insert provided in the sequence listing is shorter than the fragment length that forms part of the digital address.” left out

[5] = test system: REC1_22 (digital address TGGG 164) mRNA; test: TOGA analysis, REC1_22
Procedure: as §1, §2, §3, §4, §5

[6] = test system: REC1_24 (digital address CCGG 232) mRNA; test: TOGA analysis, REC1_24
Procedure: as §1, §2, §3, §4, §5

[7] = test system: REC1_28 (digital address CGGT 101) mRNA, calgizzarin; test: TOGA analysis, REC1_28
Procedure: as §1, §2, §3, §4, §5

[8] = test system: REC1_31 (digital address TGCA 210) mRNA, mitochondrial genome; test: TOGA analysis, REC1_31
Procedure: as §1, §2, §3, §4, §5

[9] = test system: REC1_33 (digital address CCGA 96) mRNA, as1_casein gene; test: TOGA analysis, REC1_33
Procedure: as §1, §2, §3, §4, §5

[10] = test system: REC1_34 (digital address CGGT 209) mRNA; test: TOGA analysis, REC1_34
Procedure: as §1, §2, §3, §4, §5

[11] = test system: REC1_37 (digital address TTCA 264) mRNA, ribosomal protein L15; test: TOGA analysis, REC1_37
Procedure: as §1, §2, §3, §4, §5

[12] = TOGA, hypercholesterolemic plus lercanidipine racemate, eight weeks, H2 (normocholesterolemic)=1.0
[13] = aorta at day 0: no cholesterol, 3 mg/kg/week for 2 weeks
[14] = aorta at day 14 of cholesterol administration, 3 mg/kg/week for 4 weeks
[15] = aorta at day 14 of cholesterol diet, 3 mg/kg/week for 4 weeks
[16] = aorta at day 14 of cholesterol, 3 mg/kg/week for 4 weeks

COC(=O)C1=C(C)NC(C)=C(C(=O)OC(C)(C)CN(C)CCC(c2ccccc2)c2ccccc2)C1c1cccc([N+](=O)[O-])c1 (racemic) [lercanidipine, lercanidipine hydrochloride]
level of gene expression (TOGA), 8 Week hypercholesterol + Lercanidipine ([1]; REC1_1, AAGC 288, rabbit aorta, 8 weeks cholesterol + lercanidipine): 1733
level of gene expression (TOGA), 14 Day hypercholesterol + Lercanidipine ([1]; REC1_1, AAGC 288, rabbit aorta, 14 days cholesterol + lercanidipine): 753
level of gene expression (TOGA), Normal + Lercanidipine ([1]; REC1_1, AAGC 288, rabbit aorta, no cholesterol, lercanidipine): 215
Relative Abundance Rec1_1, TOGA, F [1, 12]: 6.9
level of gene expression of REC1_1 (TOGA) ([1]; aorta at 8 weeks of cholesterol administration, 3 mg/kg/week for 10 weeks): 1733
level of gene expression of REC1_1 (TOGA) [1, 13]: 215
level of gene expression of REC1_1 (TOGA) ([1]; aorta at day 14 of cholesterol treatment, 3 mg/kg/week for 4 weeks): 753
level of gene expression, 8 Week hypercholesterol + Lercanidipine ([2]; REC1_8 CCCG 243, rabbit aorta, 8 weeks cholesterol): 1136
level of gene expression, 14 Day hypercholesterol + Lercanidipine ([2]; REC1_8 CCCG 243, rabbit aorta, 14 days cholesterol): 373
level of gene expression, Normal + Lercanidipine ([2]; REC1_8 CCCG 243, rabbit aorta, no cholesterol): 163
Relative Abundance Rec1_8, TOGA, F [2, 12]: 13.1
level of gene expression, 8 Week hypercholesterol + Lercanidipine ([3]; REC1_13 GCCC 216, rabbit aorta, 8 weeks cholesterol): 4186
level of gene expression, 14 Day hypercholesterol + Lercanidipine ([3]; REC1_13 GCCC 216, rabbit aorta, 14 days cholesterol): 542
level of gene expression, Normal + Lercanidipine ([3]; REC1_13 GCCC 216, rabbit aorta, no cholesterol): 575
Relative Abundance Rec1_13, TOGA, F [3, 12]: 5.9
level of gene expression (TOGA), 8 Week hypercholesterol + Lercanidipine ([4]; REC1_7, CACA 282, rabbit aorta, 8 weeks cholesterol + lercanidipine): 159
level of gene expression (TOGA), 14 Day hypercholesterol + Lercanidipine ([4]; REC1_7, CACA 282, rabbit aorta, 14 days cholesterol + lercanidipine): 417
level of gene expression (TOGA), Normal + Lercanidipine ([4]; REC1_7, CACA 282, rabbit aorta, no cholesterol, lercanidipine): 863
Relative Abundance Rec1_7, TOGA, F [4, 12]: 0.2
level of gene expression of REC1_7 (TOGA) [4, 13]: 863
level of gene expression of REC1_7 (TOGA) [4, 14]: 417
level of gene expression of REC1_7 (TOGA) ([4]; aorta at week 8 of cholesterol administration, 3 mg/kg/week for 10 weeks): 159
level of gene expression, 8 Week hypercholesterol + Lercanidipine (REC1_19 (TGTT 393) mRNA; REC1_19 TGTT 393, rabbit aorta, cholesterol 8 weeks): 130
level of gene expression, 14 Day hypercholesterol + Lercanidipine (REC1_19 (TGTT 393) mRNA; REC1_19 TGTT 393, rabbit aorta, cholesterol 14 days): 373
level of gene expression, Normal + Lercanidipine (REC1_19 (TGTT 393) mRNA; REC1_19 TGTT 393, rabbit aorta, no cholesterol): 569
Relative Abundance Rec1_19, TOGA, F (REC1_19 (TGTT 393) mRNA; [12]): 0.2
level of gene expression, 8 Week hypercholesterol + Lercanidipine ([5]; REC1_22 TGGG 164, rabbit aorta, cholesterol 8 weeks): 122
level of gene expression, 14 Day hypercholesterol + Lercanidipine ([5]; REC1_22 TGGG 164, rabbit aorta, cholesterol 14 days): 194
level of gene expression, Normal + Lercanidipine ([5]; REC1_22 TGGG 164, rabbit aorta, no cholesterol): 87
level of gene expression of REC1_22 (TOGA) [5, 13]: 87
level of gene expression of REC1_22 (TOGA) [5, 14]: 194
level of gene expression, 8 Week hypercholesterol + Lercanidipine ([6]; REC1_24 CCGG 232, rabbit aorta, 8 weeks cholesterol): 117
level of gene expression, 14 Day hypercholesterol + Lercanidipine ([6]; REC1_24 CCGG 232, rabbit aorta, 14 days cholesterol): 104
level of gene expression, Normal + Lercanidipine ([6]; REC1_24 CCGG 232, rabbit aorta, no cholesterol): 122
level of gene expression of REC1_24 (TOGA) [6, 13]: 122
level of gene expression of REC1_24 (TOGA) [6, 15]: 104
level of gene expression, 8 Week hypercholesterol + Lercanidipine ([7]; REC1_28 CGGT 101, rabbit aorta, 8 weeks cholesterol): 176
level of gene expression, 14 Day hypercholesterol + Lercanidipine ([7]; REC1_28 CGGT 101, rabbit aorta, 14 days cholesterol): 189
level of gene expression, Normal + Lercanidipine ([7]; REC1_28 CGGT 101, rabbit aorta, no cholesterol): 229
level of gene expression of REC1_28 (TOGA) [7, 13]: 229
level of gene expression of REC1_28 (TOGA) [7, 15]: 189
level of gene expression, 8 Week hypercholesterol + Lercanidipine ([8]; REC1_31 TGCA 210, rabbit aorta, cholesterol 8 weeks): 245
level of gene expression, 14 Day hypercholesterol + Lercanidipine ([8]; REC1_31 TGCA 210, rabbit aorta, cholesterol 14 days): 619
level of gene expression, Normal + Lercanidipine ([8]; REC1_31 TGCA 210, rabbit aorta, no cholesterol): 464
level of gene expression of REC1_31 (TOGA) [8, 13]: 464
level of gene expression of REC1_31 (TOGA) [8, 14]: 619
level of gene expression, 8 Week hypercholesterol + Lercanidipine ([9]; REC1_33 CCGA 96, rabbit aorta, 8 weeks cholesterol): 156
level of gene expression, 14 Day hypercholesterol + Lercanidipine ([9]; REC1_33 CCGA 96, rabbit aorta, 14 days cholesterol): 842
level of gene expression, Normal + Lercanidipine ([9]; REC1_33 CCGA 96, rabbit aorta, no cholesterol): 1094
level of gene expression of REC1_33 (TOGA) [9, 13]: 1094
level of gene expression of REC1_33 (TOGA) [9, 14]: 842
level of gene expression, 8 Week hypercholesterol + Lercanidipine ([10]; REC1_34 CGGT 209, rabbit aorta, 8 weeks cholesterol): 203
level of gene expression, 14 Day hypercholesterol + Lercanidipine ([10]; REC1_34 CGGT 209, rabbit aorta, 14 days cholesterol): 331
level of gene expression, Normal + Lercanidipine ([10]; REC1_34 CGGT 209, rabbit aorta, no cholesterol): 100
level of gene expression of REC1_34 (TOGA) [10, 13]: 100
level of gene expression of REC1_34 (TOGA) [10, 16]: 331
level of gene expression, 8 Week hypercholesterol + Lercanidipine ([11]; REC1_37 TTCA 264, rabbit aorta, cholesterol 8 weeks): 136
level of gene expression, 14 Day hypercholesterol + Lercanidipine ([11]; REC1_37 TTCA 264, rabbit aorta, cholesterol 14 days): 915
level of gene expression, Normal + Lercanidipine ([11]; REC1_37 TTCA 264, rabbit aorta, no cholesterol): 605
level of gene expression of REC1_37 (TOGA) [11, 16]: 915
level of gene expression of REC1_37 (TOGA) ([11]; aorta at week 8 of cholesterol, 3 mg/kg/week for 10 weeks): 136
